Laboratory results published in paper PMC10878397, “Development of Potent Dual BET/HDAC Inhibitors via Pharmacophore Merging and Structure-Guided Optimization” (ACS Chemical Biology, 2024).

Assays:
BRD4 BD1 = BRD4 BD1 (Homo sapiens, UniProt O60885); assay: NanoBRET target engagement assay (HEK293T); format: cell-based; set-up: BRD4 bromodomains and full-length HDACs were obtained as plasmids cloned in-frame with a terminal NanoLuc fusion; host or cells: HEK293T; conditions: intact cells
Experimental: (§1) The assay was performed as described previously.[17],[59] In brief, BRD4 bromodomains and full-length HDACs were obtained as plasmids cloned in-frame with a terminal NanoLuc fusion (Promega). Plasmids were transfected into HEK293T cells using FuGENE HD (Promega, E2312), and proteins were allowed to express for 20 h. Serially diluted inhibitor and the corresponding NanoBRET Tracer (Promega) at a concentration determined previously as the tracer KD, app were pipetted into white 384-well plates (Greiner #781207) for BRD assays or white 96-well plates (Corning #3600) for HDAC using an Echo acoustic dispenser (Labcyte). The corresponding protein-transfected cells were added and reseeded at a density of 2 × 10^5 cells/mL after trypsinization and resuspended in Opti-MEM without phenol red (Life Technologies). The system was allowed to equilibrate for 2 h at 37 °C/5% CO2 prior to BRET measurements. To measure BRET, NanoBRET NanoGlo substrate + Extracellular NanoLuc Inhibitor (Promega, N2540) was added as per the manufacturer’s protocol, and filtered luminescence was measured on a PHERAstar plate reader (BMG Labtech) equipped with a luminescence filter pair (450 nm BP filter (donor) and 610 nm LP filter (acceptor)). For lysed-mode NanoBRET experiments, digitonin (Promega, #G9441) was added as per the manufacturer’s instructions to a final concentration of […].

BRD4 BD2 = BRD4 BD2 (Homo sapiens, UniProt O60885); assay: NanoBRET target engagement assay (HEK293T); format: cell-based; set-up: BRD4 bromodomains and full-length HDACs were obtained as plasmids cloned in-frame with a terminal NanoLuc fusion; host or cells: HEK293T; conditions: intact cells
Experimental: as §1

TRIM24 = biological target: T1, TRIM24 (Homo sapiens, UniProt O15164); assay: DSF bromodomain selectivity panel; format: binding; conditions: 10 μM compound, construct containing tandem PHD-BD
T1 construct: purchased in-house (SGC Frankfurt recombinant bromodomain DSF panel)
Experimental: (§2) The effects of inhibitor binding on the apparent melting temperature of recombinant bromodomains were determined by DSF in a 96-well plate (Starlab) at a protein concentration of 2 μM with 10 μΜ compound in buffer containing 25 mM HEPES, pH 7.5, 150 mM NaCl, and 0.5 mM TCEP. […] Protein unfolding profiles were recorded using an MX3005P real-time qPCR instrument (Agilent; excitation/emission filters = 492/610 nm) while increasing the temperature from 25 to 95 °C at a heating rate of 3 °C/min. Tm values were calculated after fitting the fluorescence curves to the Boltzmann equation. Differences in melting temperature upon compound binding are given as ΔTm = Tm (protein with inhibitor) – Tm (protein with DMSO control). Measurements were performed in triplicates.

BRD7 = biological target: T2, BRD7 (Homo sapiens, UniProt Q9NPI1); assay: DSF bromodomain selectivity panel; format: binding; conditions: 10 μM compound
T2 construct: purchased in-house (SGC Frankfurt recombinant bromodomain DSF panel)
Experimental: as §2

BRD9 = biological target: T3, BRD9 (Homo sapiens, UniProt Q9H8M2); assay: DSF bromodomain selectivity panel; format: binding; conditions: 10 μM compound
T3 construct: purchased in-house (SGC Frankfurt recombinant bromodomain DSF panel)
Experimental: as §2

ATAD2A = biological target: T4, ATAD2A (Homo sapiens, UniProt Q6PL18); assay: DSF bromodomain selectivity panel; format: binding; conditions: 10 μM compound
T4 construct: purchased in-house (SGC Frankfurt recombinant bromodomain DSF panel)
Experimental: as §2

BRD3 (1) = biological target: T5, BRD3 (1) (Homo sapiens, UniProt Q15059); assay: DSF bromodomain selectivity panel; format: binding; conditions: 10 μM compound
T5 construct: BRD3 (1); purchased in-house (SGC Frankfurt recombinant bromodomain DSF panel)
Experimental: as §2

BRD2 (1) = biological target: T6, BRD2 (1) (Homo sapiens, UniProt P25440); assay: DSF bromodomain selectivity panel; format: binding; conditions: 10 μM compound
T6 construct: BRD2 (1); purchased in-house (SGC Frankfurt recombinant bromodomain DSF panel)
Experimental: as §2

TAF1 (1) = biological target: T7, TAF1 (1) (Homo sapiens, UniProt P21675); assay: DSF bromodomain selectivity panel; format: binding; conditions: 10 μM compound
T7 construct: TAF1 (1); purchased in-house (SGC Frankfurt recombinant bromodomain DSF panel)
Experimental: as §2

TAF1 (2) = biological target: T8, TAF1 (2) (Homo sapiens, UniProt P21675); assay: DSF bromodomain selectivity panel; format: binding; conditions: 10 μM compound
T8 construct: TAF1 (2); purchased in-house (SGC Frankfurt recombinant bromodomain DSF panel)
Experimental: as §2

PB1A(4) = biological target: T9, PB1A(4) (Homo sapiens, UniProt Q86U86); assay: DSF bromodomain selectivity panel; format: binding; conditions: 10 μM compound
T9 construct: PB1A(4); purchased in-house (SGC Frankfurt recombinant bromodomain DSF panel)
Experimental: as §2

SP100 = assay: DSF bromodomain selectivity panel; format: binding; conditions: 10 μM compound
Experimental: as §2

SMARCA2A = biological target: T10, SMARCA2A (Homo sapiens, UniProt P51531); assay: DSF bromodomain selectivity panel; format: binding; conditions: 10 μM compound
T10 construct: purchased in-house (SGC Frankfurt recombinant bromodomain DSF panel)
Experimental: as §2

TAF1LA (2) = biological target: T11, TAF1LA (2) (Homo sapiens, UniProt Q8IZX4); assay: DSF bromodomain selectivity panel; format: binding; conditions: 10 μM compound
T11 construct: TAF1LA (2); purchased in-house (SGC Frankfurt recombinant bromodomain DSF panel)
Experimental: as §2

EP300A = biological target: T12, EP300A (Homo sapiens, UniProt Q09472); assay: DSF bromodomain selectivity panel; format: binding; conditions: 10 μM compound
T12 construct: purchased in-house (SGC Frankfurt recombinant bromodomain DSF panel)
Experimental: as §2

BRD1 = biological target: T13, BRD1 (Homo sapiens, UniProt O95696); assay: DSF bromodomain selectivity panel; format: binding; conditions: 10 μM compound
T13 construct: purchased in-house (SGC Frankfurt recombinant bromodomain DSF panel)
Experimental: as §2

PB1A(3) = biological target: T14, PB1A(3) (Homo sapiens, UniProt Q86U86); assay: DSF bromodomain selectivity panel; format: binding; conditions: 10 μM compound
T14 construct: PB1A(3); purchased in-house (SGC Frankfurt recombinant bromodomain DSF panel)
Experimental: as §2

BRD3 (2) = biological target: T15, BRD3 (2) (Homo sapiens, UniProt Q15059); assay: DSF bromodomain selectivity panel; format: binding; conditions: 10 μM compound
T15 construct: BRD3 (2); purchased in-house (SGC Frankfurt recombinant bromodomain DSF panel)
Experimental: as §2

TRIM33B = biological target: T16, TRIM33B (Homo sapiens, UniProt Q9UPN9); assay: DSF bromodomain selectivity panel; format: binding; conditions: 10 μM compound, construct containing tandem PHD-BD
T16 construct: purchased in-house (SGC Frankfurt recombinant bromodomain DSF panel)
Experimental: as §2

BRPF1B = biological target: T17, BRPF1B (Homo sapiens, UniProt P55201); assay: DSF bromodomain selectivity panel; format: binding; conditions: 10 μM compound
T17 construct: purchased in-house (SGC Frankfurt recombinant bromodomain DSF panel)
Experimental: as §2

TRIM28 = biological target: T18, TRIM28 (Homo sapiens, UniProt Q13263); assay: DSF bromodomain selectivity panel; format: binding; conditions: 10 μM compound, construct containing tandem PHD-BD
T18 construct: purchased in-house (SGC Frankfurt recombinant bromodomain DSF panel)
Experimental: as §2

PB1A(5) = biological target: T19, PB1A(5) (Homo sapiens, UniProt Q86U86); assay: DSF bromodomain selectivity panel; format: binding; conditions: 10 μM compound
T19 construct: PB1A(5); purchased in-house (SGC Frankfurt recombinant bromodomain DSF panel)
Experimental: as §2

CREBBPA = biological target: T20, CREBBPA (Homo sapiens, UniProt Q92793); assay: DSF bromodomain selectivity panel; format: binding; conditions: 10 μM compound
T20 construct: purchased in-house (SGC Frankfurt recombinant bromodomain DSF panel)
Experimental: as §2

T15 sequence (Q15059 306-416 limits assumed): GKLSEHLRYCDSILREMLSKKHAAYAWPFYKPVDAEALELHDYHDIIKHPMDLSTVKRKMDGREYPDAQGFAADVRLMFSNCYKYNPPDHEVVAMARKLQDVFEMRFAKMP
T13 sequence (O95696 whole entry): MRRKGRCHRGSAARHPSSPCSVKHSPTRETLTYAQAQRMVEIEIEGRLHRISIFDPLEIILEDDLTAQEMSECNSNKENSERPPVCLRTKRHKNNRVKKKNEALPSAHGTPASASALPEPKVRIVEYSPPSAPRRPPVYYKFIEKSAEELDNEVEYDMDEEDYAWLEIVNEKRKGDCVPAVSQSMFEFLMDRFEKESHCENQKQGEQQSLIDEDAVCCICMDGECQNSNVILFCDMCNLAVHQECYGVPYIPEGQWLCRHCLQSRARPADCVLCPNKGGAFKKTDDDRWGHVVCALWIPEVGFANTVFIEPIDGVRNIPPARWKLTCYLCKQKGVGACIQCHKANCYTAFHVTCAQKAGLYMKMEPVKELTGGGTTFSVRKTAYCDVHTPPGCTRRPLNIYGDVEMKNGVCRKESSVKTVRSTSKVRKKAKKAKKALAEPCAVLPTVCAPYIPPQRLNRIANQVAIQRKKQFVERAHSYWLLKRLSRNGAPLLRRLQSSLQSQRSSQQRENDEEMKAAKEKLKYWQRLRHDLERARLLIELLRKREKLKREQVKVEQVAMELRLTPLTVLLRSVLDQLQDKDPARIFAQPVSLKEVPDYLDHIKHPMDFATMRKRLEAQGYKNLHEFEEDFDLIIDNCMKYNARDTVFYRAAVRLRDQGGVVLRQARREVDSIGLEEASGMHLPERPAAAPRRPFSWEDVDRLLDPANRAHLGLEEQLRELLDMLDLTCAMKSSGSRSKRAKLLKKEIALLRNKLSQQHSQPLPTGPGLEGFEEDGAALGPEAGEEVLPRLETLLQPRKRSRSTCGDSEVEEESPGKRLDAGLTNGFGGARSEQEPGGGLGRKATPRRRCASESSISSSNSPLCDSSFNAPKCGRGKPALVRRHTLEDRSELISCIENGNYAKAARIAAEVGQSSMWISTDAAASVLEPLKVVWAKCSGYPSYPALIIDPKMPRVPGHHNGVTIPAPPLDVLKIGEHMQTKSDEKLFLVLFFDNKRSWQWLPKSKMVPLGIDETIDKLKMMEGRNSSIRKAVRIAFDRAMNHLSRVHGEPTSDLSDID
T7 sequence (P21675 1397-1505 limits assumed): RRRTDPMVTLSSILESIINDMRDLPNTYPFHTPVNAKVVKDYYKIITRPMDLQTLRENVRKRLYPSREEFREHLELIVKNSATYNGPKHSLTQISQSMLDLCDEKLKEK
T6 sequence (P25440 71-194 limits assumed): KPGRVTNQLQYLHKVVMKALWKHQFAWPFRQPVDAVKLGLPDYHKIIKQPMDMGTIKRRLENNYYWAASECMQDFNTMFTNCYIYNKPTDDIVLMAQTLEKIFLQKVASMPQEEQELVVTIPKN
T3 sequence (Q9H8M2 whole entry): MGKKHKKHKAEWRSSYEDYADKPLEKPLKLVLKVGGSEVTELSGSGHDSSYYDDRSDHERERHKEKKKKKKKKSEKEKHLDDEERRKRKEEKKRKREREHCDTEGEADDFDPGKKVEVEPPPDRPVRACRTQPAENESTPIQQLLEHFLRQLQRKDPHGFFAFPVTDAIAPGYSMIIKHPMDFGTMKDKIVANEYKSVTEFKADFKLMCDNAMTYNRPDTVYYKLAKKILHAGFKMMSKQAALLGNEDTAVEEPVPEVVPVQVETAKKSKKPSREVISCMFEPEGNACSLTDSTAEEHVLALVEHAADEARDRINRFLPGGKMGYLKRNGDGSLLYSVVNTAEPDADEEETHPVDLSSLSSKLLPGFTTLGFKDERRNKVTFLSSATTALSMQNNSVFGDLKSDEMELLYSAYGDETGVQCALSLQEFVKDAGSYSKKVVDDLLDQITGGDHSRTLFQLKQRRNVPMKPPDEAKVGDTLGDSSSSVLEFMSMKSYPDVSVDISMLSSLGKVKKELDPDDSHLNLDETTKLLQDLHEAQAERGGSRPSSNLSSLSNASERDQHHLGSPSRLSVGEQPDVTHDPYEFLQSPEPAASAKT
T2 sequence (Q9NPI1 whole entry): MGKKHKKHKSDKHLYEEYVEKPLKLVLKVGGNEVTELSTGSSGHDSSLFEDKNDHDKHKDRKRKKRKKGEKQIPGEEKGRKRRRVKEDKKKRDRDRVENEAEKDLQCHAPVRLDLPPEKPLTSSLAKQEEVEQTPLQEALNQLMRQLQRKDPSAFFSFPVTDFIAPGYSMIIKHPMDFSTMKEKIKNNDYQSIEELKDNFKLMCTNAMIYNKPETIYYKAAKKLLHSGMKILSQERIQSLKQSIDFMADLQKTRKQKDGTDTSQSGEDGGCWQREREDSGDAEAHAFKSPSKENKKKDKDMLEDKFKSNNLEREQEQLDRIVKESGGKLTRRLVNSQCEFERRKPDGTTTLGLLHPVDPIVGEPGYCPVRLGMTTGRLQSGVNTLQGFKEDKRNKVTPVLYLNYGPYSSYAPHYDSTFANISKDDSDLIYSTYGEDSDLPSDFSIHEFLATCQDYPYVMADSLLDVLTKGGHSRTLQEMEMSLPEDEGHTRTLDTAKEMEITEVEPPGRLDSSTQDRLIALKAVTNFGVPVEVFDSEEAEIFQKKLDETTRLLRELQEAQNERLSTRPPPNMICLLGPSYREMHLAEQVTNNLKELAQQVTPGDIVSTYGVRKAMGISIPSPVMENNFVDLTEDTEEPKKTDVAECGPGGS
T9 sequence (Q86U86 496-637 limits assumed): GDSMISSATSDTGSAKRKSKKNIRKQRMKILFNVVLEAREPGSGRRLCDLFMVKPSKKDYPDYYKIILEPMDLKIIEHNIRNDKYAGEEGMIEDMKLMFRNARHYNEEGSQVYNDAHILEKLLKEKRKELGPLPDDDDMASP
T1 sequence (O15164 whole entry): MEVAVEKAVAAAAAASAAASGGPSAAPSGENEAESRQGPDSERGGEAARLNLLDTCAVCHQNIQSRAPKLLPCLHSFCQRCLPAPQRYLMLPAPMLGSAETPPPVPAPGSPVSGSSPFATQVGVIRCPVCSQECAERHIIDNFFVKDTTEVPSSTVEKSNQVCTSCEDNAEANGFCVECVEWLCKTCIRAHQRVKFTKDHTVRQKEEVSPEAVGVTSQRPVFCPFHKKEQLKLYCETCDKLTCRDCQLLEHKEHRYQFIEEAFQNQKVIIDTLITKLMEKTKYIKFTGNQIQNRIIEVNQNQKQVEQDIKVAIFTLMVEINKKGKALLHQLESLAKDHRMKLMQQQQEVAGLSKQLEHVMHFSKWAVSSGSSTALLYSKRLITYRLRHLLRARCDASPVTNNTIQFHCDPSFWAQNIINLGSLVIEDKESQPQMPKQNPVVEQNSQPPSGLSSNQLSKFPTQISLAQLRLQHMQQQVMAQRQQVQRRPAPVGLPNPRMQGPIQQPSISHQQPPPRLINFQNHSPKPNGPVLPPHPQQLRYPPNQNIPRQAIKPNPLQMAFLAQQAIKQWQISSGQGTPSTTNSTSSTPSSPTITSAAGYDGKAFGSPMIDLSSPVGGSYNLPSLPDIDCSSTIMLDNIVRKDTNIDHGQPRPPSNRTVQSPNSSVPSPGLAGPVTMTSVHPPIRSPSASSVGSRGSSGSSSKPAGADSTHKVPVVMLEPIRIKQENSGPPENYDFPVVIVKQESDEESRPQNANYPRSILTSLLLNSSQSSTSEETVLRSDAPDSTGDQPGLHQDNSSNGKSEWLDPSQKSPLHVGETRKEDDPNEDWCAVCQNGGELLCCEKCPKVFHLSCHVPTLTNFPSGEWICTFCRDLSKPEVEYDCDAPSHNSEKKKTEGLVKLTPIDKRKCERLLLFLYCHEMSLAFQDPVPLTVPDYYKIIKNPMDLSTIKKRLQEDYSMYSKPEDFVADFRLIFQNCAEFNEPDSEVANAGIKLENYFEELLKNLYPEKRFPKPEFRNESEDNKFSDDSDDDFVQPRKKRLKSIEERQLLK
T8 sequence (P21675 1522-1656 limits assumed): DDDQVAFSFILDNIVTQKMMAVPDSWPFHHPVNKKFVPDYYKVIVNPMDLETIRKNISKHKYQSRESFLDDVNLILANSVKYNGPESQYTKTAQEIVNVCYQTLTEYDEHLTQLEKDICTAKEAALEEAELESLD
T19 sequence (Q86U86 645-766 limits assumed): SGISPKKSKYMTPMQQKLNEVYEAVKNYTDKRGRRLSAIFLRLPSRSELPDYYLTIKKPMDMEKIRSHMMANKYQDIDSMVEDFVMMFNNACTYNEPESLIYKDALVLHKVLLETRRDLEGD
T5 sequence (Q15059 24-144 limits assumed): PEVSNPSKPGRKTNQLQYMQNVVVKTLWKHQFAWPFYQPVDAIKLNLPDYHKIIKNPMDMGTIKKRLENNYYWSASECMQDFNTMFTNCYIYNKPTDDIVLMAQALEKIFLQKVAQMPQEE
T14 sequence (Q86U86 388-494 limits assumed): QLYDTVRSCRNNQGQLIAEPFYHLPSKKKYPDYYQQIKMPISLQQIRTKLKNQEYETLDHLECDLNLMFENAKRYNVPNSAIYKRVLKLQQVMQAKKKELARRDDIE
T11 sequence (Q8IZX4 1523-1654 limits assumed): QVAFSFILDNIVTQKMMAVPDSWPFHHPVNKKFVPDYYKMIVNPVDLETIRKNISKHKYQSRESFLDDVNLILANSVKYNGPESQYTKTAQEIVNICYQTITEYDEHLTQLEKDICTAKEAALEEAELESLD

Compound	EC50 (BRD4 BD1)	EC50 (BRD4 BD2)	Mean Tm TRIM24 (TRIM24)	Mean Tm BRD7 (BRD7)	Mean Tm BRD9 (BRD9)	Mean Tm ATAD2A (ATAD2A)	Mean Tm BRD3 (1) (BRD3 (1))	Mean Tm BRD2 (1) (BRD2 (1))	Mean Tm TAF1 (1) (TAF1 (1))	Mean Tm TAF1 (2) (TAF1 (2))	Mean Tm PB1A(4) (PB1A(4))	Mean Tm SP100 (SP100)	Mean Tm SMARCA2A (SMARCA2A)	Mean Tm TAF1LA (2) (TAF1LA (2))	Mean Tm EP300A (EP300A)	Mean Tm BRD1 (BRD1)	Mean Tm PB1A(3) (PB1A(3))	Mean Tm BRD3 (2) (BRD3 (2))	Mean Tm TRIM33B (TRIM33B)	Mean Tm BRPF1B (BRPF1B)	also measured
Cn1cc(-c2ccc(C(=O)Nc3ccccc3N)cc2)c2cc[nH]c2c1=O [NB462]	250 ± 20 nM	190 ± 20 nM	0.6 ± 0.1 K	5.6 ± 0.3 K	5.2 ± 1.2 K	0.4 ± 0.2 K	3.8 ± 0.3 K	3.1 ± 0.5 K	0.4 ± 0.1 K	1.3 ± 0.0 K	0.1 ± 0.1 K	-0.2 ± 0.1 K	-0.1 ± 0.1 K	1.7 ± 0.1 K	2.0 ± 0.3 K	0.2 ± 0.1 K	0.5 ± 0.2 K	6.1 ± 0.0 K	0.4 ± 0.1 K	0.8 ± 0.1 K	Mean Tm TRIM28 (TRIM28): 0.6 ± 0.4 K; Mean Tm PB1A(5) (PB1A(5)): 0.0 ± 0.1 K; Mean Tm CREBBPA (CREBBPA): 1.8 ± 0.3 K
Cn1cc(-c2ccc(C(=O)Nc3ccccc3N)nc2)c2cc[nH]c2c1=O [NB500]	240 ± 20 nM	160 ± 40 nM																			
Cn1cc(-c2ccc(C(=O)Nc3cc(-c4ccccc4)ccc3N)cc2)c2cc[nH]c2c1=O [NB503]	420 ± 110 nM	520 ± 180 nM	0.7 ± 0.5 K	1.1 ± 0.2 K	1.0 ± 0.8 K	-1.3 ± 0.1 K	3.8 ± 0.4 K	3.2 ± 0.5 K	1.0 ± 0.2 K	1.7 ± 0.1 K	1.0 ± 0.6 K	0.4 ± 0.1 K	1.2 ± 0.5 K	1.2 ± 0.0 K	1.0 ± 0.3 K	1.1 ± 0.1 K	0.0 ± 0.0 K	4.6 ± 0.7 K	0.5 ± 0.0 K	0.8 ± 0.3 K	Mean Tm TRIM28 (TRIM28): 0.0 ± 0.2 K; Mean Tm PB1A(5) (PB1A(5)): 1.1 ± 0.2 K; Mean Tm CREBBPA (CREBBPA): 1.4 ± 0.3 K
Cn1cc(-c2ccc(C(=O)Nc3cc(-c4ccccc4)ccc3N)nc2)c2cc[nH]c2c1=O [NB512]	360 ± 130 nM	250 ± 120 nM																			
